# What was measured:
# [1] = target: T1, human topo IIα (Homo sapiens, UniProt P11388); experiment: HTS relaxation assay of human topo IIα; type: biochemical
# T1 construct: purchased Inspiralis (Norwich, U.K.)
# [2] = target: T1, human topo IIα; experiment: Human topo IIα-mediated kDNA decatenation assay; type: biochemical
# Experimental: (§1) We made use of the human topo II decatenation assay kit from Inspiralis (Norwich, U.K.) to assess the ability of selected compounds to impede DNA decatenation.[89],[90] It was performed for topo IIα and topo IIβ isoforms using the protocol as described previously.[35]
# [3] = target: T2, human topo IIβ (Homo sapiens, UniProt Q02880); experiment: Human topo IIβ-mediated kDNA decatenation assay; type: biochemical
# T2 construct: purchased Inspiralis (Norwich, U.K.)
# Experimental: We were also interested in whether compounds can act on both isoforms of the human topo II. Thus, we performed human topo IIβ decatenation assays for compounds 1 and 9. […] (see also Tables S5 and S6 for more details).
# as §1
# [4] = target: T1, human topo IIα; experiment: Human topoisomerase II competitive ATPase assay; type: biochemical
# Experimental: The human topo competitive ATPase assay was executed at Inspiralis (Norwich, U.K.). The compound was analyzed using a kinase/lactate dehydrogenase assay as described above.
# A mixture of the assay buffer (20 mM Tris–HCl, 5 mM magnesium acetate, 125 mM potassium acetate, 2 mM DTT, pH 7.9), linear pBR322 (1.5 μL of 1 mg/mL per assay), phosphoenol pyruvate (0.5 μL of 80 mM per assay), pyruvate kinase/lactate dehydrogenase mix (0.75 μL per assay), NADH (1 μL of 20 mM per assay), DMSO (1.5 μL per assay), and water (32.85 μL per assay) was prepared. This mixture (41.1 μL) was put into the wells of a 384-well microtiter plate. DMSO (0.5 μL) or the diluted investigated compound in the DMSO was added to the wells and mixed. Subsequently, 5 μL of the dilution buffer or human topo IIα (12 nM final concentration) was added and mixed. Before the run, a prerun was done where we added 3.4 μL of the appropriate concentration of ATP and monitored the OD340 for up to 35 min. The assay temperature was 37 °C. Two negative controls (4% DMSO and dilution buffer without enzyme) were used in the presence of 2 mM ATP. The ATP concentrations in this assay were 0.025, 0.05, 0.075, 0.1, 0.25, 0.5, 0.75, and 1 mM. The assays were executed in duplicate at 3.9, 31, 50, 75, and 100 μM final concentrations of the investigated compound 1. DMSO has a final concentration of 4% (v/v) in all of the reactions.
# 8. Human topoisomerase II ATPase assays at different concentration of the ATP – Competitive ATPase assay
# The spectrophotometer produces an output as change in OD340 with time (data not shown).
# The data from the runs after the addition of the ATP were plotted after adjusting the starting OD340 to zero. Lines are fitted to these by linear regression and the rates (OD change/min) calculated. The rates for each ATP and inhibitor concentration were then calculated as μM ATP hydrolysed/min using an extinction coefficient of 6.22 M-1 cm-1 and a path length of 0.5 cm. The rates were then plotted against the ATP concentration and curves fitted to the data using the hyperbolic equation y=(ax/(b+x) where y = rate, x = [ATP], a = Vmax and b=Km.
# Using the equation y=y0+(ax/(b+x)) it was possible to solve it and obtain values. […]
# concentrations after subtraction of the background rate and calculated Km (mM ATP) and Vmax (μM ATP/min) values. They were calculated from equation y = (ax /(b+x) where y = rate, x = [ATP], a = Vmax.
# Rates for controls without enzyme in the presence of 2 mM ATP (μmol/min) […]
# Rates (μmol/min) at different ATP concentrations (mM) after subtraction of background […]
# Calculated Km (mM ATP) and Vmax (μM ATP/min) values
# [5] = test system: HepG2 cells; experiment: Cell cycle analysis by flow cytometry; type: cell-based, human; conditions: 24 h
# [6] = test system: HepG2 cells; experiment: Cell proliferation, Ki67 flow cytometry; type: cell-based, human; conditions: 24 h, 50 μM
# [7] = test system: HepG2 cells; experiment: DNA double-strand break induction, γ-H2AX assay; type: cell-based, human
# T1 sequence (P11388 whole entry): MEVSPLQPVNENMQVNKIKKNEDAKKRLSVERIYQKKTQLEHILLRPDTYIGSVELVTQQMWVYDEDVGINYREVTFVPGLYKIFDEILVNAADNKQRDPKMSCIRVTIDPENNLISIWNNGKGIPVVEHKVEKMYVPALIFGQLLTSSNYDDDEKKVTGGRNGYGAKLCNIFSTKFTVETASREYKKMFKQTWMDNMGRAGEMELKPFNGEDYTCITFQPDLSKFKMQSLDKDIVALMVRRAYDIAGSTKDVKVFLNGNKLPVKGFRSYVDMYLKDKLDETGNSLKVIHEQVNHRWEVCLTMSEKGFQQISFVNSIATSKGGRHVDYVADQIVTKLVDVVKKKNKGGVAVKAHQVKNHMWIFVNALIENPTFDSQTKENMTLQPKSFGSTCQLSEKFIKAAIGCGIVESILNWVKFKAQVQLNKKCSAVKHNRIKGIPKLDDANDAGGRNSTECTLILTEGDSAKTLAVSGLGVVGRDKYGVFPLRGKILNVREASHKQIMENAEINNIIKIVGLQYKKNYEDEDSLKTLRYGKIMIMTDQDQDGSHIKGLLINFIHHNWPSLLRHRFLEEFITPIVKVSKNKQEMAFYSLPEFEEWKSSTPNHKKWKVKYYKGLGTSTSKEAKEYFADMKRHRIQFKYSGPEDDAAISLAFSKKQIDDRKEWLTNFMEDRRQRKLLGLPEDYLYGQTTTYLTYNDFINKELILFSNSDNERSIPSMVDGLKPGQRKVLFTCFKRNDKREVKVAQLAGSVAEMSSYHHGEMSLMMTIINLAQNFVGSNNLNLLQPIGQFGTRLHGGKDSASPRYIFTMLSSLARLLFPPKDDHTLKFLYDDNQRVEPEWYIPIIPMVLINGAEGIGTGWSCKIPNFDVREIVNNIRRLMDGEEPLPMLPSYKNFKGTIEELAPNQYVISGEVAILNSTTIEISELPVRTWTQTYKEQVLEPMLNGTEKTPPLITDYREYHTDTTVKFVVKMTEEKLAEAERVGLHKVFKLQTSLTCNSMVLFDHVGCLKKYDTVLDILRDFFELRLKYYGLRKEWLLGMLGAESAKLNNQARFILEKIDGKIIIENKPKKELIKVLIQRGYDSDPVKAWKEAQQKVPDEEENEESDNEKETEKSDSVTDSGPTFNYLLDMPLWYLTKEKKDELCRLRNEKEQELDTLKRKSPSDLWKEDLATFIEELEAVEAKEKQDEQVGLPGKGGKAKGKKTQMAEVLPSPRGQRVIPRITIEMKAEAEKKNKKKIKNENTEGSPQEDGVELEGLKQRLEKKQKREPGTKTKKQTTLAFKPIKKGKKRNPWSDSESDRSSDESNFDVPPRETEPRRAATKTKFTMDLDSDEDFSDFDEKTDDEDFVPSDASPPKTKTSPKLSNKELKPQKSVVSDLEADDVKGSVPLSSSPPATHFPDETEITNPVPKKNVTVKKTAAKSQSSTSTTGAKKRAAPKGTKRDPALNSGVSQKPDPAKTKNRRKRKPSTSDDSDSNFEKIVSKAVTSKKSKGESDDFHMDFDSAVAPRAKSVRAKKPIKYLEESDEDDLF
# T2 sequence (Q02880 whole entry): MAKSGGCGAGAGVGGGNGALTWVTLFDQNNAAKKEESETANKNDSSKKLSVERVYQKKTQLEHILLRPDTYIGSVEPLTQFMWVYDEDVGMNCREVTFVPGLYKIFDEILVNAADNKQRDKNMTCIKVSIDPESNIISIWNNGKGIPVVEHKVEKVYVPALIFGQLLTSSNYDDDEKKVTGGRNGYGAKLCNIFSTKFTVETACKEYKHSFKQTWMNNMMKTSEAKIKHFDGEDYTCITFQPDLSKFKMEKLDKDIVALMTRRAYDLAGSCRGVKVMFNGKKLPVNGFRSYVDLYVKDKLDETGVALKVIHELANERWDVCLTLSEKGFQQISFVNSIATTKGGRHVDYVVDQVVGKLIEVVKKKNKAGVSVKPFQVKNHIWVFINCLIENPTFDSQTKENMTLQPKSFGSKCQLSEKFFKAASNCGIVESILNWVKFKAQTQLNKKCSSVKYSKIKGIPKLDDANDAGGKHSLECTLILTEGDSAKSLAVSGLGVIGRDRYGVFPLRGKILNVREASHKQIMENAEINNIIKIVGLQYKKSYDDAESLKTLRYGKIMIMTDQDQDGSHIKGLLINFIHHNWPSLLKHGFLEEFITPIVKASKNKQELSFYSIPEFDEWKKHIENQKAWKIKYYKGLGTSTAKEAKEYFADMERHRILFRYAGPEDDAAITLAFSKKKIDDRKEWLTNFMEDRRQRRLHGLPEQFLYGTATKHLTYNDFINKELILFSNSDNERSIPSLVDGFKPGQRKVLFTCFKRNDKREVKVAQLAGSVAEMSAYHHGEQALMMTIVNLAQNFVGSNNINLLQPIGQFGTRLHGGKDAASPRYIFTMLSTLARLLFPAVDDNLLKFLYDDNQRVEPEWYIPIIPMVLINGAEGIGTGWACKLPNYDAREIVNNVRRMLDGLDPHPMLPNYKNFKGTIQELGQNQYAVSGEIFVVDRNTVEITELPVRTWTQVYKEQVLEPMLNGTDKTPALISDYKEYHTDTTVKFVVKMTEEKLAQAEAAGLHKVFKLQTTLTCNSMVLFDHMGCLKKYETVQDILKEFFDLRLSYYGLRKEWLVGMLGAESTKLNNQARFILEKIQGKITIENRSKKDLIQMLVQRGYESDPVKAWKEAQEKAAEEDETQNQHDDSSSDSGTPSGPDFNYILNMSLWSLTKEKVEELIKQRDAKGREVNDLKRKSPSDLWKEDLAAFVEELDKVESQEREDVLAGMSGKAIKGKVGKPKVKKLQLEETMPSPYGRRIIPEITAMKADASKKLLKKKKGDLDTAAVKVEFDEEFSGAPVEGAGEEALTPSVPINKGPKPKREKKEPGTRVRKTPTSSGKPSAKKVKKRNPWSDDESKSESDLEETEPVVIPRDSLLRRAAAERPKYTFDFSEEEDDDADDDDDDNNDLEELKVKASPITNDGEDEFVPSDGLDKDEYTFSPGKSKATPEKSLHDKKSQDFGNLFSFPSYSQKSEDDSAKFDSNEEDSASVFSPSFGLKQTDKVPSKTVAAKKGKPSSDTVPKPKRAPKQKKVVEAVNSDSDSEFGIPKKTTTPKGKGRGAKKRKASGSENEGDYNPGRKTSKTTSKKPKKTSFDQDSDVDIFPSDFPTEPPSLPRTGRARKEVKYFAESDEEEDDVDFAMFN
smiles,measurement,setting,value
Cc1nc(N)sc1-c1csc(Nc2ccc(C(F)(F)F)cc2)n1 [Compound 1],IC50,[1],33.4 µM
same,% Decatenated Average,[2]; 31.5 μM,80.9%
same,inhibition of decatenation,[2]; 125 μM,complete inhibition
same,inhibition of decatenation,[2]; 500 μM,complete inhibition
same,inhibition of decatenation,[3]; 125 μM,completely inhibited
same,inhibition of decatenation,[3]; 500 μM,completely inhibited
same,IC50,"[4]; ATP 0.025 (mM per method), fit R^2 0.474, read-out: IC50 at c(ATP) 0.025",0.0038 mM
same,IC50,"[4]; ATP 0.05 (mM per method), read-out: IC50 at c(ATP) 0.05",0.0088 mM
same,IC50,"[4]; ATP 0.075 (mM per method), read-out: IC50 at c(ATP) 0.075",0.0148 mM
same,IC50,"[4]; ATP 0.1 (mM per method), read-out: IC50 at c(ATP) 0.1",0.0094 mM
same,IC50,"[4]; ATP 0.25 (mM per method), read-out: IC50 at c(ATP) 0.25",0.0183 mM
same,IC50,"[4]; ATP 0.5 (mM per method), read-out: IC50 at c(ATP) 0.5",0.0152 mM
same,IC50,"[4]; ATP 0.75 (mM per method), read-out: IC50 at c(ATP) 0.75",0.0178 mM
same,IC50,"[4]; ATP 1 (mM per method), read-out: IC50 at c(ATP) 1",0.0216 mM
same,IC50,"[4]; ATP 2 (mM per method), read-out: IC50 at c(ATP) 2",0.0254 mM
same,Calculated Vmax,[4]; compound 3.9 μM,2.97 μM ATP/min
same,Rate of ATP hydrolysis after subtraction of background,"[4]; compound 3.9 μM, ATP 0.025 mM",0.064 µmol/min
same,Rate of ATP hydrolysis after subtraction of background,"[4]; compound 3.9 μM, ATP 0.05 mM",0.257 µmol/min
same,Rate of ATP hydrolysis after subtraction of background,"[4]; compound 3.9 μM, ATP 0.075 mM",0.354 µmol/min
same,Rate of ATP hydrolysis after subtraction of background,"[4]; compound 3.9 μM, ATP 0.1 mM",0.450 µmol/min
same,Rate of ATP hydrolysis after subtraction of background,"[4]; compound 3.9 μM, ATP 0.25 mM",1.158 µmol/min
same,Rate of ATP hydrolysis after subtraction of background,"[4]; compound 3.9 μM, ATP 0.5 mM",1.479 µmol/min
same,Rate of ATP hydrolysis after subtraction of background,"[4]; compound 3.9 μM, ATP 0.75 mM",1.801 µmol/min
same,Rate of ATP hydrolysis after subtraction of background,"[4]; compound 3.9 μM, ATP 1 mM",1.897 µmol/min
same,Rate of ATP hydrolysis after subtraction of background,"[4]; compound 3.9 μM, ATP 2 mM",2.444 µmol/min
same,Calculated Vmax,[4]; compound 31 μM,1.9 μM ATP/min
same,Rate of ATP hydrolysis after subtraction of background,"[4]; compound 31 μM, ATP 0.05 mM",0.032 µmol/min
same,Rate of ATP hydrolysis after subtraction of background,"[4]; compound 31 μM, ATP 0.075 mM",0.096 µmol/min
same,Rate of ATP hydrolysis after subtraction of background,"[4]; compound 31 μM, ATP 0.1 mM",0.161 µmol/min
same,Rate of ATP hydrolysis after subtraction of background,"[4]; compound 31 μM, ATP 0.25 mM",0.450 µmol/min
same,Rate of ATP hydrolysis after subtraction of background,"[4]; compound 31 μM, ATP 0.5 mM",0.707 µmol/min
same,Rate of ATP hydrolysis after subtraction of background,"[4]; compound 31 μM, ATP 0.75 mM",0.868 µmol/min
same,Rate of ATP hydrolysis after subtraction of background,"[4]; compound 31 μM, ATP 1 mM",1.061 µmol/min
same,Rate of ATP hydrolysis after subtraction of background,"[4]; compound 31 μM, ATP 2 mM",1.286 µmol/min
same,Calculated Vmax,[4]; compound 50 μM,2.77 μM ATP/min
same,Rate of ATP hydrolysis after subtraction of background,"[4]; compound 50 μM, ATP 0.025 mM",0.000 µmol/min
same,Rate of ATP hydrolysis after subtraction of background,"[4]; compound 50 μM, ATP 0.05 mM",0.096 µmol/min
same,Rate of ATP hydrolysis after subtraction of background,"[4]; compound 50 μM, ATP 0.075 mM",0.129 µmol/min
same,Rate of ATP hydrolysis after subtraction of background,"[4]; compound 50 μM, ATP 0.1 mM",0.032 µmol/min
same,Rate of ATP hydrolysis after subtraction of background,"[4]; compound 50 μM, ATP 0.25 mM",0.193 µmol/min
same,Rate of ATP hydrolysis after subtraction of background,"[4]; compound 50 μM, ATP 0.5 mM",0.450 µmol/min
same,Rate of ATP hydrolysis after subtraction of background,"[4]; compound 50 μM, ATP 0.75 mM",0.707 µmol/min
same,Rate of ATP hydrolysis after subtraction of background,"[4]; compound 50 μM, ATP 1 mM",0.772 µmol/min
same,Rate of ATP hydrolysis after subtraction of background,"[4]; compound 50 μM, ATP 2 mM",1.222 µmol/min
same,Calculated Vmax,[4]; compound 75 μM,1.94 μM ATP/min
same,Rate of ATP hydrolysis after subtraction of background,"[4]; compound 75 μM, ATP 0.025 mM",0.096 µmol/min
same,Rate of ATP hydrolysis after subtraction of background,"[4]; compound 75 μM, ATP 0.05 mM",0.032 µmol/min
same,Rate of ATP hydrolysis after subtraction of background,"[4]; compound 75 μM, ATP 0.1 mM",0.064 µmol/min
same,Rate of ATP hydrolysis after subtraction of background,"[4]; compound 75 μM, ATP 0.25 mM",0.225 µmol/min
same,Rate of ATP hydrolysis after subtraction of background,"[4]; compound 75 μM, ATP 0.5 mM",0.322 µmol/min
same,Rate of ATP hydrolysis after subtraction of background,"[4]; compound 75 μM, ATP 0.75 mM",0.386 µmol/min
same,Rate of ATP hydrolysis after subtraction of background,"[4]; compound 75 μM, ATP 1 mM",0.354 µmol/min
same,Rate of ATP hydrolysis after subtraction of background,"[4]; compound 75 μM, ATP 2 mM",0.740 µmol/min
same,Calculated Vmax,[4]; compound 100 μM,3.07 μM ATP/min
same,Rate of ATP hydrolysis after subtraction of background,"[4]; compound 100 μM, ATP 0.025 mM",0.064 µmol/min
same,Rate of ATP hydrolysis after subtraction of background,"[4]; compound 100 μM, ATP 0.05 mM",0.032 µmol/min
same,Rate of ATP hydrolysis after subtraction of background,"[4]; compound 100 μM, ATP 0.075 mM",0.000 µmol/min
same,Rate of ATP hydrolysis after subtraction of background,"[4]; compound 100 μM, ATP 0.1 mM",0.032 µmol/min
same,Rate of ATP hydrolysis after subtraction of background,"[4]; compound 100 μM, ATP 0.25 mM",0.064 µmol/min
same,Rate of ATP hydrolysis after subtraction of background,"[4]; compound 100 μM, ATP 0.5 mM",0.418 µmol/min
same,Rate of ATP hydrolysis after subtraction of background,"[4]; compound 100 μM, ATP 0.75 mM",0.289 µmol/min
same,Rate of ATP hydrolysis after subtraction of background,"[4]; compound 100 μM, ATP 1 mM",0.354 µmol/min
same,Rate of ATP hydrolysis after subtraction of background,"[4]; compound 100 μM, ATP 2 mM",0.772 µmol/min
same,cell cycle arrest (in words),[5],cell cycle arrest in the G1 phase
same,cell proliferation (Ki67),[6],65.1%
same,induction of DNA double-strand breaks (γH2AX),[7]; 10 μM,did not induce an increase in DNA-DSB formation
same,induction of DNA double-strand breaks (γH2AX),[7]; 50 μM,did not induce an increase in DNA-DSB formation

# From article PMC7469689, “Substituted 4,5′-Bithiazoles as Catalytic Inhibitors of Human DNA Topoisomerase IIα” (Journal of Chemical Information and Modeling, 2020)
